Measurements published in US6737383B1, “Herbicidal oxadiazolidines” (priority 1999, dated 2004).

Tests used:
bedstraw = experiment: Test B pre/postemergence bedstraw; format: in vivo, Galium aparine
Procedure, shortened: (§1)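 Response is a visual 0-to-10 score relative to untreated plants, where 0 means no effect and 10 means complete control, taken twelve to sixteen days after application. Treatments went onto soil at planting and onto foliage of 1- to 4-leaf plants, using a surfactant-containing non-phytotoxic solvent.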

blackgrass = experiment: Test B pre/postemergence blackgrass; format: in vivo, Alopecurus myosuroides
Procedure, shortened: as §1

surinam grass = experiment: Test B pre/postemergence surinam grass; format: in vivo, Brachiaria decumbens
Procedure, shortened: as §1

corn = experiment: Test B pre/postemergence corn; format: in vivo, Zea mays
Procedure, shortened: as §1

crabgrass = experiment: Test B pre/postemergence crabgrass; format: in vivo, Digitaria sanguinalis
Procedure, shortened: as §1

pigweed = experiment: Test B pre/postemergence pigweed; format: in vivo, Amaranthus retroflexus
Procedure, shortened: as §1

rape = experiment: Test B pre/postemergence rape; format: in vivo, Brassica napus
Procedure, shortened: as §1

soybean = experiment: Test B pre/postemergence soybean; format: in vivo, Glycine max
Procedure, shortened: as §1

sugar beet = experiment: Test B pre/postemergence sugar beet; format: in vivo, Beta vulgaris
Procedure, shortened: as §1

velvetleaf = experiment: Test B pre/postemergence velvetleaf; format: in vivo, Abutilon theophrasti
Procedure, shortened: as §1

wheat = experiment: Test B pre/postemergence wheat; format: in vivo, Triticum aestivum
Procedure, shortened: as §1

wild oat = experiment: Test B pre/postemergence wild oat; format: in vivo, Avena fatua
Procedure, shortened: as §1

purple nutsedge = experiment: Test B pre/postemergence purple nutsedge; format: in vivo, Cyperus rotundus
Procedure, shortened: as §1

rice = experiment: Test B flood test rice; format: in vivo, Oryza sativa
Procedure, shortened: (§2)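 Flood test on plants grown to the 2-leaf stage; treated plants kept in greenhouse twelve to sixteen days, then visually rated against controls on a 0 (no effect) to 10 (complete control) scale.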

smallflower flatsedge = experiment: Test B flood test smallflower flatsedge; format: in vivo, Cyperus difformis
Procedure, shortened: as §2

duck salad = experiment: Test B flood test duck salad; format: in vivo, Heteranthera limosa
Procedure, shortened: as §2

[1] = Postemergence, Rate 62 g/ha, scale 0 to 10, 0 is no effect, 10 is complete control
[2] = Preemergence, Rate 62 g/ha, scale 0 to 10, 0 is no effect, 10 is complete control
[3] = Preemergence, Rate 125 g/ha, scale 0 to 10 (0 no effect, 10 complete control)
[4] = Preemergence, Rate 250 g/ha, scale of 0 to 10 where 0 is no effect and 10 is complete control
[5] = Preemergence, Rate 500 g/ha, scale 0 (no effect) to 10 (complete control)
[6] = Rate 125 g/ha, Postemergence, scale 0 to 10, 0 no effect, 10 complete control
[7] = Postemergence, Rate 250 g/ha, scale 0 to 10, 0 no effect, 10 complete control
[8] = Rate 500 g/ha, Postemergence, 0 to 10 scale (0 no effect, 10 complete control)
[9] = Rate 125 g/ha, Postemergence section (flood test species), scale 0 to 10, 0 no effect, 10 complete control
[10] = Rate 250 g/ha, headed Pre-emergence (flood test species), scale 0 to 10 (0 no effect, 10 complete control)
[11] = Rate 500 g/ha, Postemergence section of Table B, 0 to 10 scale (0 no effect, 10 complete control)
[12] = Rate 500 g/ha, headed Pre-emergence (flood test species), scale 0 to 10 (0 no effect, 10 complete control)
[13] = Rate 1000 g/ha, Pre-emergence (as headed), scale 0 to 10
[14] = Rate 2000 g/ha, Pre-emergence (as headed), scale 0 to 10
[15] = flood test, listed under Postemergence, Rate 250 g/ha, scale 0 to 10, 0 no effect, 10 complete control

Cc1cccc(C)c1-n1c(=O)on(C(=O)N(c2ccccc2)C(C)C)c1=O [Compound 46]
2: Plant response rating, Blackgrass (blackgrass; [4]) | Plant response rating, B. signalgrass (surinam grass; [4]) | Velvetleaf plant response rating (velvetleaf; [5]) | Ducksalad plant response rating (duck salad; [13]) | Ducksalad plant response rating (duck salad; [14])
0: Bedstraw plant response rating (bedstraw; [1]) | Plant response rating, Bedstraw (bedstraw; [2]) | Plant response rating, Bedstraw (bedstraw; [3]) | Plant response rating, Bedstraw (bedstraw; [4]) | Bedstraw plant response rating (bedstraw; [5]) | Bedstraw plant response rating (bedstraw; [6]) | Blackgrass plant response rating (blackgrass; [1]) | Plant response rating, Blackgrass (blackgrass; [2]) | Plant response rating, Blackgrass (blackgrass; [3]) | Blackgrass plant response rating (blackgrass; [6]) | B. signalgrass plant response rating (surinam grass; [1]) | B. signalgrass plant response rating (surinam grass; [7]) | Plant response rating, B. signalgrass (surinam grass; [2]) | Plant response rating, B. signalgrass (surinam grass; [3]) | B. signalgrass plant response rating (surinam grass; [6]) | B. signalgrass plant response rating (surinam grass; [8]) | Corn plant response rating (corn; [1]) | Corn plant response rating (corn; [7]) | Plant response rating, Corn (corn; [2]) | Plant response rating, Corn (corn; [3]) | Plant response rating, Corn (corn; [4]) | Corn plant response rating (corn; [5]) | Corn plant response rating (corn; [6]) | Corn plant response rating (corn; [8]) | Crabgrass plant response rating (crabgrass; [1]) | Crabgrass plant response rating (crabgrass; [6]) | Redroot pigweed plant response rating (pigweed; [1]) | Redroot pigweed plant response rating (pigweed; [7]) | Plant response rating, Redroot pigweed (pigweed; [2]) | Plant response rating, Redroot pigweed (pigweed; [3]) | Redroot pigweed plant response rating (pigweed; [6]) | Redroot pigweed plant response rating (pigweed; [8]) | Rape plant response rating (rape; [1]) | Rape plant response rating (rape; [7]) | Plant response rating, Rape (rape; [2]) | Plant response rating, Rape (rape; [3]) | Plant response rating, Rape (rape; [4]) | Rape plant response rating (rape; [5]) | Rape plant response rating (rape; [6]) | Rape plant response rating (rape; [8]) | Plant response rating, Soybean (soybean; [2]) | Plant response rating, Soybean (soybean; [3]) | Plant response rating, Soybean (soybean; [4]) | Soybean plant response rating (soybean; [5]) | Sugarbeets plant response rating (sugar beet; [1]) | Sugarbeets plant response rating (sugar beet; [7]) | Plant response rating, Sugarbeets (sugar beet; [2]) | Sugarbeets plant response rating (sugar beet; [6]) | Velvetleaf plant response rating (velvetleaf; [1]) | Velvetleaf plant response rating (velvetleaf; [7]) | Plant response rating, Velvetleaf (velvetleaf; [2]) | Plant response rating, Velvetleaf (velvetleaf; [3]) | Plant response rating, Velvetleaf (velvetleaf; [4]) | Velvetleaf plant response rating (velvetleaf; [6]) | Wheat plant response rating (wheat; [1]) | Wheat plant response rating (wheat; [7]) | Plant response rating, Wheat (wheat; [2]) | Plant response rating, Wheat (wheat; [3]) | Plant response rating, Wheat (wheat; [4]) | Wheat plant response rating (wheat; [5]) | Wheat plant response rating (wheat; [6]) | Wild oats plant response rating (wild oat; [1]) | Wild oats plant response rating (wild oat; [7]) | Plant response rating, Wild oats (wild oat; [3]) | Plant response rating, Wild oats (wild oat; [4]) | Wild oats plant response rating (wild oat; [5]) | Wild oats plant response rating (wild oat; [6]) | Nutsedge plant response rating (purple nutsedge; [1]) | Nutsedge plant response rating (purple nutsedge; [7]) | Plant response rating, Nutsedge (purple nutsedge; [2]) | Plant response rating, Nutsedge (purple nutsedge; [3]) | Plant response rating, Nutsedge (purple nutsedge; [4]) | Nutsedge plant response rating (purple nutsedge; [5]) | Nutsedge plant response rating (purple nutsedge; [6]) | Nutsedge plant response rating (purple nutsedge; [8]) | Rice plant response rating (rice; [1]) | Rice plant response rating (rice; [9]) | Rice plant response rating (rice; [10]) | Rice plant response rating (rice; [11]) | Plant response rating, Rice (rice; [12]) | Rice plant response rating (rice; [13]) | Rice plant response rating (rice; [14]) | Rice plant response rating (rice; [15]) | S. Flatsedge plant response rating (smallflower flatsedge; [1]) | S. Flatsedge plant response rating (smallflower flatsedge; Pre-emergence, Rate 1000 g/ha, scale 0 to 10 (0 no effect, 10 complete control)) | S. Flatsedge plant response rating (smallflower flatsedge; [9]) | S. Flatsedge plant response rating (smallflower flatsedge; [10]) | Plant response rating, S. Flatsedge (smallflower flatsedge; [12]) | S. Flatsedge plant response rating (smallflower flatsedge; [15]) | Ducksalad plant response rating (duck salad; [1]) | Ducksalad plant response rating (duck salad; [10]) | Ducksalad plant response rating (duck salad; [11]) | Plant response rating, Ducksalad (duck salad; [12]) | Ducksalad plant response rating (duck salad; [15])
1: Plant response rating, Crabgrass (crabgrass; [2]) | Soybean plant response rating (soybean; [1]) | Soybean plant response rating (soybean; [7]) | Soybean plant response rating (soybean; [6])
9: Redroot pigweed plant response rating (pigweed; [5])
10: Plant response rating, Crabgrass (crabgrass; [4]) | Crabgrass plant response rating (crabgrass; [5])
3: B. signalgrass plant response rating (surinam grass; [5]) | Crabgrass plant response rating (crabgrass; [7]) | Crabgrass plant response rating (crabgrass; [8]) | Plant response rating, Sugarbeets (sugar beet; [3]) | Plant response rating, Sugarbeets (sugar beet; [4])
6: Blackgrass plant response rating (blackgrass; [7]) | Blackgrass plant response rating (blackgrass; [8]) | Plant response rating, Redroot pigweed (pigweed; [4]) | Sugarbeets plant response rating (sugar beet; [5])
7: Blackgrass plant response rating (blackgrass; [5])
8: S. Flatsedge plant response rating (smallflower flatsedge; [14])
4: Plant response rating, Crabgrass (crabgrass; [3])
